Measured values published in patent US4661294A, “Biologically active 1-thio derivatives of vitamin D” (The General Hospital Corporation, priority 1985, dated 1987).

Legend:
[1] = literature reports; cited from earlier work
human fibroblasts = test: human fibroblast cell proliferation; type: cell-based; conditions: for effect on the inhibitory effect of 1-alpha,25-dihydroxyvitamin D3 on cell generation: added to the 1-alpha,25-dihydroxy compound
Method: FIG. 4 is a graph comparing the effects of ethanol ( ), ethanol plus 1-alpha,25-dihydroxyvitamin D3 ( ), and 1-beta-thio-25-hydroxyvitamin D3 and 1-alpha,25-dihydroxyvitamin D3 ( ) on human fibroblast cell proliferation.
To confirm this, the effects of various compounds on cell proliferation rates were studied, using human fibroblasts to evaluate activity. Human fibroblasts were prepared as described by Clemens, J. Clin. Endocrinol. Met., 56: 197 (1983). In the study, 2.5×10^5 cells, in quadruplicate, were exposed to (a) 95% ethanol; (b) ethanol plus 1-alpha-25-dihydroxyvitamin D3 ( ); or (c) 1-beta-thio-25-hydroxyvitamin D3 plus 1-alpha, 25-dihydroxyvitamin D3 ( ). As may be seen from FIG. 4, the 1-alpha-25-dihydroxy-vitamin D3 inhibited cell generation by about 30% ( ). […] Further, the 1-thio compound alone had no effect on cell generation time (data not shown).

[2] = target: T1, chick cytosolic receptor (1,25-dihydroxyvitamin receptor site) (Gallus gallus, UniProt O42392); test: competition with 3H-1,25-dihydroxyvitamin D3 for receptor site (procedure of Eisman et al.); type: binding
T1 sequence (O42392 1-451): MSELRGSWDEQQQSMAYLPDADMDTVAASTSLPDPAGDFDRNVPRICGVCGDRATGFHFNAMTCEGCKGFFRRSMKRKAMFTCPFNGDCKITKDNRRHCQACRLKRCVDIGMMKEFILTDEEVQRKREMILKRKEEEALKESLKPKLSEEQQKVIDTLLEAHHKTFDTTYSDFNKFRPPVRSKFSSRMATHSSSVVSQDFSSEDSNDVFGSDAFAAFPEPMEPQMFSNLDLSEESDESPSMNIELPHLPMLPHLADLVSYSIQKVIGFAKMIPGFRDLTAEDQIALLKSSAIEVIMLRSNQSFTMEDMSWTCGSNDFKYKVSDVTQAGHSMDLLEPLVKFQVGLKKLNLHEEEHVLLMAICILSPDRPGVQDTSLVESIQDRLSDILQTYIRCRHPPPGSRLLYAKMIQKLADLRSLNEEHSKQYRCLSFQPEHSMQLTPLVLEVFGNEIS
Excerpt: FIG. 3 is a graph comparing the binding characteristics of 1-alpha,25-dihydroxyvitamin D3 ( ) and 1-beta-thio-25-hydroxyvitamin D3 (Δ) using chick cytosolic receptor.
Thus, the 1-beta-thio-25-hydroxyvitamin D3 can be used as a biologically active analogue of the natural compound.

C=C1/C(=C\C=C2/CCC[C@]3(C)[C@@H]([C@H](C)CCCC(C)(C)F)CC[C@@H]23)C[C@@H](O)C[C@@H]1F [1-alpha-25-difluoro vitamin D3]
biological activity [1]: biologically inert

C=C1/C(=C\C=C2/CCC[C@]3(C)[C@@H]([C@H](C)CCCC(C)(C)O)CC[C@@H]23)C[C@@H](O)C[C@@H]1O [1-alpha-25-dihydroxy-vitamin D3, 1-alpha,25-dihydroxyvitamin D3, reference compound]
inhibition of cell generation (human fibroblasts; human fibroblasts, 2.5×10^5 cells, FIG. 4): about 30%

C=C1/C(=C\C=C2/CCC[C@]3(C)[C@@H]([C@H](C)CCCC(C)(C)O)CC[C@@H]23)C[C@@H](O)C[C@H]1S [1-beta-thio-25-hydroxyvitamin D3, 1-beta-thio-25-hydroxy vitamin D3]
effect on the inhibitory effect of 1-alpha,25-dihydroxyvitamin D3 on cell generation (human fibroblasts; human fibroblasts, FIG. 4): blocked the inhibitory effect
effect on the inhibitory effect of 1-alpha,25-dihydroxyvitamin D3 on cell generation (human fibroblasts; human fibroblasts, FIG. 4, listed as 1-beta-thio-hydrovitamin D3): blocks the ability of the 1,25-dihydroxy compound from affecting in vitro fibroblast cell division
effect on cell generation time (human fibroblasts; compound alone (data not shown)): no effect
competition with 3H-1,25-dihydroxyvitamin D3 for the receptor site / recognition by the cytosol receptor site ([2]; FIG. 3): able to compete
competition with 3H-1,25-dihydroxyvitamin D3 for the receptor site / recognition by the cytosol receptor site ([2]; FIG. 3, listed as 1-beta-thio-hydrovitamin D3): recognized by the cytosol receptor site

C=C1/C(=C\C=C2/CCC[C@]3(C)[C@@H]([C@H](C)CCCC(C)C)CC[C@@H]23)C[C@@H](O)CC1F (some centres unmarked) [1-fluoro vitamin D3]
biological activity [1]: possess biological activity
